From patent publication US4180583A, “Olefinic 4-substituted piperidino derivatives as therapeutics” (Richardson-Merrell Inc., priority 1978, dated 1979)
Counter-ions that a name gives are not always drawn.

Experiments:
[1] = test system: wheals induced by intradermal injections of histamine; assay: reduction of wheals induced by intradermal injections of histamine in guinea pigs; format: in vivo, guinea pig; conditions: Cavia porcellus, po, 1 h, orally administered one hour prior to histamine injection, intradermal injections of 1γ each of histamine, read-out: ED50 (amount required to reduce by 50% wheals induced by intradermal histamine)
[2] = test system: aerosol antigen induced bronchial spasms and death; assay: prevention of aerosol antigen induced bronchial spasms and death in the guinea pig; format: in vivo; conditions: Cavia porcellus, po, orally, read-out: minimal amount required to prevent aerosol antigen induced bronchial spasms and death
From the text: The minimal amounts of the compounds of Examples 5 and 9 required to prevent aerosol antigen induced bronchial spasms and death in the guinea pig are respectively 4.0 and 8.0 milligrams per kilogram of body weight orally.

Structure (SMILES): Fc1ccc(C=CCCN2CCC(C(c3ccccc3)c3ccccc3)CC2)cc1 [Example 2, 4-(Diphenylmethyl)-1-[4-(p-fluorophenyl)-3-butenyl]-piperidine hydrochloride hemihydrate]
- ED50 [1]: 14.4 mg/kg

Structure (SMILES): Cl.O=C(CCCN1CCC(=C(c2ccccc2)c2ccccc2)CC1)c1cccs1 [Example 5, 4-[4-(Diphenylmethylene)piperidino]-1-(2-thienyl)-1-butanone hydrochloride]
- ED50 [1]: 3.1 mg/kg
- minimal effective dose [2]: 4 mg/kg

Structure (SMILES): CC(C)(C)c1ccc(C(=O)CCCN2CCC(=C(c3ccccc3)c3ccccc3)CC2)cc1.Cl [Example 9, 4'-tert-Butyl-4-[4-(diphenylmethylene)piperidino]butyrophenone hydrochloride]
- ED50 [1]: 4 mg/kg
- minimal effective dose [2]: 8 mg/kg
